From US20250161245A1, “A MIXTURE OF UREA, BIURET AND N-CONTAINING BY-PRODUCTS CREATED DURING BIURET PRODUCTION AS A DIETARY NON-PROTEIN NITROGEN-SOURCE FOR RUMINANTS AND USES THEREOF” (Yara International ASA, priority 2022, published 2025)

Test system: beef steers
Test: enteric methane emission, SF6 tracer technique (Example 3)
Assay type: in vivo, crossbred yearling steers
Procedure: Methane emission was measured in all steers for five consecutive days using the SF6 tracer technique (Johnson et al., 1994; Henry et al., 2020). In this technique, the steers received a calibrated permeation tube filled with SF6 (3.1 g+0.2 g) before the measurement period. The average SF6 release rate was […]+1.1 mg/d. After five days of training, a vacuum gas collector canister was attached to each animal to collect a sample of daily gas production. Each day at the same hour, a new vacuum canister was replaced throughout the five days of the measurement period. Five collection canisters were used to determine environmental CH4 and SF6 concentrations. A gas sample was taken from each canister and conserved in 120 ml bottles for posterior analysis of CH4 and SF6 using gas chromatography. For the current experiment, only steers with a least three successful days of collection and measurement were considered in the final analysis. Gas samples were analyzed by gas chromatography (Agilent 7820A GC, Agilent Technologies, Palo Alto, CA). A flame ionization and electron capture detector were used for CH4 and SF6 analysis, respectively, with a capillary column (Plot Fused Silica 25 m×0.32 mm, Coating Molsieve 5A, Varian CP7536, Varian Inc., Lake Forest, CA). The injector, column and detector temperatures for CH4 analysis were 80, 160 and 200° C., respectively. For SF6, temperatures were 50, 30 and 300° C. for the injector, the column and the detector, respectively. The carrier gas for CH4 and SF6 was N2. The emissions of CH4 were calculated according to the next equation:
[formula] • QCH4=CH4 emissions per animal (g/day) • QSF6=SF6 release rate (mg/day) • [CH4]γ=the concentration of CH4 in the animals' collection canister • [CH4]β=the concentration of CH4 in the environmental collection canister • [SF6]γ=the concentration of SF6 in the animals' collection canister • [SF6]β=the concentration of SF6 in the environmental collection canister

[1] = five consecutive days, SF6 tracer

Question: Which results are given for NC(N)=O [Urea, urea]?
Answer: DM intake (Table 7 (methane measurement)): 6.08 kg/day; Methane emission (g/kg ADG) [1]: 213.79 g/kg ADG; Methane emission (g/kg DMI) [1]: 36.59 g/kg DMI; Methane emission (g/kg OMI) [1]: 38.68 g/kg OMI
